The test system of experiment [1] is melanocortin receptor (Mc4r and Mc3r). The experiment can be described thus: Food intake following saline or MTII in Mrap2+/+ vs. Mrap2−/− mice. In kind it is in vivo. To be noted: young (age 38-45 days) Mrap2−/− mice; 2 μg/g body weight, i.p. An excerpt:
FIG. 5A depicts images of the appearance of male and female Mrap^+/+ and Mrap2^−/− mice. Left panel: External appearance on standard chow (age 175 days). Upper right: mesenteric fat in female Mrap^+/+ and Mrap2^−/− mice (age 175 days). Lower right: Brown adipose tissue (BAT) in female Mrap^+/+ and Mrap2^−/− mice (age 175 days). FIG. 5B depicts the level of serum leptin in Mrap2^+/+ and Mrap2^−/− mice. Left panel: Mrap2^+/+ vs. Mrap2^−/− ad libitum fed male (n=4 vs. 6) and female (n=8 vs. 4) mice (ages 302-349 days). Right panel: Mrap2^+/+ vs. Mrap2^−/− food-restricted, weight-matched male (n=4 vs. 6, weight=27.4±0.6 vs. 24.8±0.2 g), and female (n=4 vs. 6, weight=21.5±0.6 vs. 20.8±0.2 g) mice (ages 135-151 days). *p=0.005, **p<0.00001. FIG. 5C depicts the level of fasting serum insulin in Mrap2^+/+ and Mrap2^−/− male (n=4 vs. 6) and female (n=6 vs. 8) mice (ages 88-194 days). There was no significant difference between genotypes of either gender. FIG. 5D depicts the results of a glucose tolerance test (intraperitoneal) in Mrap2^+/+ and Mrap2^−/− male (n=4 vs. 6) and female (n=6 vs. 8) mice (ages 88-194 days). There was no significant difference between genotypes of either gender. FIG. 5E depicts levels of blood corticosterone in morning, evening, and following 30 minutes of restraint stress in Mrap2^+/+ and Mrap2^−/− male (n=4 vs. 3) and female (n=6 vs. 7) mice (ages 124-178 days). […]

The next experiment concerns the target T1, Mc3r (Mus musculus, UniProt P33033).
T1 construct: expressed in transfected cells; host or cells: CHO cells
The experiment can be described thus: Effect of Mrap2 on Mc3r signaling: cAMP reporter (CRELuc) activity in transfected CHO cells. In kind it is cell-based. As to conditions: Mc3r+Mrap2 vs. Mc3r, at the two highest αMSH doses (0-10 nM, 5 h). The source says: FIG. 6A depicts graphs of food intake (left panel) and body weight (right panel) in female Mrap2^flox/flox vs. Sim1^Cre: Mrap2^flox/flox mice. Sim1^Cre::Mrap2^flox/flox mice were either ad libitum-fed or pair-fed starting at age 70 days (upward arrow) to ad libitum-fed Mrap2^flox/flox mice. […] FIG. 6B depicts graphs of body weights in mice with combined knockout of Mrap2 and Mc4r. Top panels: Body weights in mixed Mrap^+/−::Mc4r^+/− genotypes (male Mrap^+/−::Mc4r^+/−, n=10; Mrap^+/+::Mc4r^+/−, n=10; Mrap^+/−::Mc4r^+/+, n=8; Mrap^+/+::Mc4r^+/+, n=9; female Mrap^+/−: Mc4r^−/−, n=9; Mrap^+/+::Mc4r^−/−, n=12; Mrap^+/−::Mc4r^+/+, n=8; Mrap^+/+::Mc4r^+/+, n=8). Bottom panels: Body weights in mixed Mrap^−/−::Mc4r^−/− genotypes (male Mrap^−/−:Mc4r^−/−, n=9; Mrap^+/+::Mc4r^−/−, n=8; Mrap^−/−: Mc4r^+/+, n=8; Mrap^+/+::Mc4r^+/+, n=9; female Mrap^−/−::Mc4r^−/−, n=7; Mrap^+/+:::Mc4r^−/−, n=8; Mrap^−/−::Mc4r^+/+, n=9; Mrap^+/+:::Mc4r^+/+, n=8). *p<0.05, **p<0.001 by ANOVA. FIG. 6C depicts the results of co-immunoprecipitation assay between Mrap2 and Mc4r. Transfection into CHO cells of Myc-tagged Mrap2 and GFP-tagged Mc4r was followed by anti-Myc immunoprecipitation and anti-GFP immunoblotting. […] Right panel: cAMP activity of these same constructs, expressed as percent induction following 0-10 nM αMSH, relative to 0 nM αMSH. *p<0.0001, Mc3r+Mrap2 vs. Mc3r at same [αMSH], by ANOVA. […]

The target of the next experiment is T2, Mc4r (Mus musculus, UniProt P56450).
T2 construct: expressed in transfected cells; host or cells: CHO cells (ATCC), transient transfection with pRC/CMV constructs, pCRE-Luc and pRL-TK
Briefly: Mc4r bioassay for Mrap2 effect: cAMP reporter (CRELuc) activity in transfected CHO cells. In kind it is cell-based. As to conditions: 0-10 nM αMSH, 5 h. The source says:
FIGS. 3A-3C depict the interaction between Mrap2 and Mc4r. […] Top right, Cre DNA analysis by PCR. […] Molecular weight marker (M) on right (bp). Top left, Mrap2 DNA analysis in Sim1^CreBAC::Mrap2^f/f and Mrap2^f/f mice by PCR. Both genotypes contain floxed, intact Mrap2 DNA in CX, HT, and BS (314 bp in upper electropherogram, and 1013 bp in lower electropherogram, molecular weight markers on left). Only Sim1^CreBAC::Mrap2^f/f mice contain Mrap2^Del (400 bp, lower electropherogram), and only in HT and BS, but not in CX, consistent with fluorescent reporter data. No PCR products are present without added DNA (H2O). Bottom, Mrap2 mRNA expression in Sim1^CreBAC::Mrap2^f/f and Mrap2^f/f mice by RT-PCR. Both genotypes express floxed, intact Mrap2 mRNA in CX, HT, and BS (247 bp). Only Sim1^CreBAC::Mrap2^f/f mice express Mrap2^Del mRNA (147 bp), and only in HT. Global Mrap2^Del/Del mice express Mrap2^Del mRNA in all 3 sites. FIG. 3B depicts graphs of body weights of Mrap2^+/+ (male n=6, female n=11), Mrap2^−/− (male n=11, female n=7), Mrap2^f/f (male n=8, female n=12) and conditional Sim1^CreBAC::Mrap2^f/f (male n=8, female n=7) mice, all age 133 days. *p=0.04, **p=0.007, ***p=0.0002, ****p<0.0001. FIG. 3C depicts graphs of the effect of Mrap2 on Mc4r signaling. Left panel: Level of cAMP reporter activity (CRELuc) in CHO cells alone, or co-transfected with Mc4r, with or without Mrap2 or the Mrap2 knockout construct, Mrap2delE3, 5 h following exposure to 0-10 nM αMSH (n=3/group). Right panel: cAMP activity of these same constructs, expressed as percent induction following 0-10 nM αMSH, relative to 0 nM αMSH. *p<0.0001, Mc4r+Mrap2 vs. Mc4r at same [αMSH], by ANOVA. For most data points, error bars are obscured by symbols.
The coding sequences of mouse Mrap2 and Mc4r were isolated by PCR of brain cDNA (Mrap2) or genomic DNA (Mc4r) (Table S4), subcloned into TOPO-pCRII™ (Invitrogen, Carlsbad, Calif.), sequence-verified, and ligated into pRC/CMV (Invitrogen, Carlsbad, Calif.). Mrap2delE3, identical to the product of Mrap2^−/− mice, was also created and ligated into pRC/CMV. […]

T2 sequence (P56450 whole entry): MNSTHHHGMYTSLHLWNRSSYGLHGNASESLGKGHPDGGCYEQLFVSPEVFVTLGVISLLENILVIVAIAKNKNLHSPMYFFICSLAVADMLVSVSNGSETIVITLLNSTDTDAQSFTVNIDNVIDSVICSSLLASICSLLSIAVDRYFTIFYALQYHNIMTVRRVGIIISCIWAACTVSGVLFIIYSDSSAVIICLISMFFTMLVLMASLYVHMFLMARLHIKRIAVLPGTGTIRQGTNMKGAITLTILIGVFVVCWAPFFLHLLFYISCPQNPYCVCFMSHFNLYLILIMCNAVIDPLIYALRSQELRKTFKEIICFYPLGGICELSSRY
T1 sequence (P33033 whole entry): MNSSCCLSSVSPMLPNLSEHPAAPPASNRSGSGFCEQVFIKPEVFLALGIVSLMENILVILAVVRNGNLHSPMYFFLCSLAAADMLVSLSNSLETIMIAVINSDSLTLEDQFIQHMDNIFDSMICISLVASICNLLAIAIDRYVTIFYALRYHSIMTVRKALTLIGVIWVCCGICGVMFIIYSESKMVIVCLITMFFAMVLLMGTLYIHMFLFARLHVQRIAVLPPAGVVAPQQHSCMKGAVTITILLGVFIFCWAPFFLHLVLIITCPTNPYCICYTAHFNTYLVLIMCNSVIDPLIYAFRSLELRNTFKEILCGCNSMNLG

“acetyl-(Nle^4, Asp^5, D-Phe^7, Lys^10)-cyclo-[…]-MSH (4-10) amide acetate salt [MTII]”: in experiment [1], the “anorectic response (food intake)” value is listed as “intact anorectic response”.

Turning to α-melanocyte stimulating hormone [αMSH], the “signaling through Mc3r (cAMP reporter activity)” value at Mc3r is reported as “increased signaling”. Moreover, the “increase above basal PKA activity” value on Mc4r (CHO cells co-transfected with Mc4r and Mrap2, relative to 0 nM αMSH) is given as 5 fold; on Mc4r (CHO cells with Mc4r alone) it was under 2 fold; on Mc4r (CHO cells with Mc4r plus the Mrap2 null construct Mrap2delE3) it was under 2 fold.

Source of the values: patent publication US20190313614A1, “MRAP2 KNOCKOUTS” (EFFSTOCK, LLC, priority 2013, published 2019).
